Assay results as given in ChEMBL document CHEMBL1201862, “PubChem BioAssay data set” (2004).
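48-hour exposure; five concentrations; linearly interpolated endpoints. The concentration for 50% growth inhibition is given as GI50.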 Activity calls are given as the source filed them. No stated cut-off is given here; in the data, active = GI50 up to about 1.1 µM and inactive = higher.

What was measured:
Assay in all cases: inhibition of tumour cell growth, NCI panel, 48 h
786-0 = test system: 786-0
A549 = test system: A549
HL-60 = test system: HL-60
HOP-62 = test system: HOP-62
HOP-92 = test system: HOP-92
LOX IMVI = test system: LOX IMVI
Malme-3M = test system: Malme-3M
OVCAR-3 = test system: OVCAR-3
RPMI-8226 = test system: RPMI-8226
RXF 393 = test system: RXF 393
SF-268 = test system: SF-268
SK-MEL-28 = test system: SK-MEL-28
SN12C = test system: SN12C
SNB-75 = test system: SNB-75
UACC-257 = test system: UACC-257

| SMILES | GI50 (786-0) | GI50 (A549) | GI50 (HL-60) | GI50 (HOP-62) | GI50 (HOP-92) | GI50 (LOX IMVI) | GI50 (Malme-3M) | GI50 (OVCAR-3) | GI50 (RPMI-8226) | GI50 (RXF 393) | GI50 (SF-268) | GI50 (SK-MEL-28) | GI50 (SN12C) | GI50 (SNB-75) | GI50 (UACC-257) |
| --- | --- | --- | --- | --- | --- | --- | --- | --- | --- | --- | --- | --- | --- | --- | --- |
| COc1ccc(CNc2nc3ccc(C(F)(F)F)cc3nc2-c2ccccc2)cc1OC | > 10 µM (inactive) | 31.3 µM (inactive) | 6.98 µM (inactive) | > 100 µM (inactive) | 2.9 µM (inactive) | 36.8 µM (inactive) | 73.5 µM (inactive) | 60.8 µM (inactive) | 35.9 µM (inactive) | 8.89 µM (inactive) | 63.2 µM (inactive) | > 100 µM (inactive) | 46.2 µM (inactive) | 11 µM (inactive) | 25.2 µM (inactive) |
| C=CCSC[C@H](NC(=O)COc1ccccc1)C(=O)NC(C(=O)OCc1ccc([N+](=O)[O-])cc1)=C(C)C | > 100 µM (inactive) | 62.1 µM (inactive) | 23.3 µM (inactive) | > 100 µM (inactive) | – | 64.9 µM (inactive) | > 100 µM (inactive) | 45.7 µM (inactive) | 39.2 µM (inactive) | 49.7 µM (inactive) | > 100 µM (inactive) | > 100 µM (inactive) | > 100 µM (inactive) | 37.6 µM (inactive) | 52.4 µM (inactive) |
| CCCCCCCCCCCCCCCCCC(CCCCCCCCCCCCCCCCC)OP(=O)(O)O | > 100 µM (inactive) | > 100 µM (inactive) | > 100 µM (inactive) | – | > 100 µM (inactive) | > 100 µM (inactive) | > 100 µM (inactive) | > 100 µM (inactive) | > 100 µM (inactive) | > 100 µM (inactive) | > 100 µM (inactive) | > 100 µM (inactive) | > 100 µM (inactive) | > 100 µM (inactive) | > 100 µM (inactive) |
| CC(N)Cc1cccc(C(F)(F)F)c1 (stereo not given) | > 100 µM (inactive) | > 100 µM (inactive) | > 100 µM (inactive) | > 100 µM (inactive) | > 100 µM (inactive) | > 100 µM (inactive) | > 100 µM (inactive) | > 100 µM (inactive) | > 100 µM (inactive) | > 100 µM (inactive) | > 100 µM (inactive) | > 100 µM (inactive) | > 100 µM (inactive) | > 100 µM (inactive) | > 100 µM (inactive) |
| C[N+](C)(C)CC1CCCCC1=O (stereo not given) | > 100 µM (inactive) | > 100 µM (inactive) | 13.9 µM (inactive) | > 100 µM (inactive) | – | 14 µM (inactive) | 19.6 µM (inactive) | 19.1 µM (inactive) | 9.06 µM (inactive) | 18.4 µM (inactive) | – | 17.3 µM (inactive) | > 100 µM (inactive) | 20.5 µM (inactive) | 14.3 µM (inactive) |
| CC(=O)C1=C(O)C2C3c4c[nH]c5cccc(c45)CC3C(C)(C)N2C1=O (stereo not given) | 19.3 µM (inactive) | 28.7 µM (inactive) | 3.05 µM (inactive) | 6.46 µM (inactive) | > 100 µM (inactive) | 16.2 µM (inactive) | 33.9 µM (inactive) | 23.1 µM (inactive) | 4.85 µM (inactive) | – | 27.4 µM (inactive) | 21.6 µM (inactive) | – | – | 62.2 µM (inactive) |
| CCC(C)(O)c1cn(-c2ccc(S(=O)(=O)O)cc2)nn1 (stereo not given) | > 100 µM (inactive) | > 100 µM (inactive) | > 100 µM (inactive) | > 100 µM (inactive) | > 100 µM (inactive) | > 100 µM (inactive) | > 100 µM (inactive) | > 100 µM (inactive) | > 100 µM (inactive) | > 100 µM (inactive) | > 100 µM (inactive) | > 100 µM (inactive) | > 100 µM (inactive) | > 100 µM (inactive) | > 100 µM (inactive) |
| O=C(/C=C/c1ccccc1)CC(=O)CCC(=O)Nc1ccc(Cl)cc1 | > 100 µM (inactive) | > 100 µM (inactive) | > 100 µM (inactive) | 29.6 µM (inactive) | – | 39.2 µM (inactive) | > 100 µM (inactive) | > 100 µM (inactive) | > 100 µM (inactive) | – | 60.3 µM (inactive) | – | > 100 µM (inactive) | – | 77.3 µM (inactive) |
| COc1ccc2c(c1)Cc1c-2[nH]c2cc3c(cc2c1=O)OCO3 | 20.2 µM (inactive) | 7.31 µM (inactive) | 6.12 µM (inactive) | 17.1 µM (inactive) | 17.7 µM (inactive) | 14.5 µM (inactive) | 13.7 µM (inactive) | 16.7 µM (inactive) | 6.11 µM (inactive) | 4.01 µM (inactive) | 18.7 µM (inactive) | 15.8 µM (inactive) | 30.7 µM (inactive) | – | – |
| [O-]c1c2c(nn1-c1ccccc1)c1ccccc1c[n+]2Cc1ccccc1 | > 100 µM (inactive) | > 100 µM (inactive) | > 100 µM (inactive) | > 100 µM (inactive) | > 100 µM (inactive) | > 100 µM (inactive) | > 100 µM (inactive) | > 100 µM (inactive) | > 100 µM (inactive) | 0.13 µM (active) | 47.1 µM (inactive) | > 100 µM (inactive) | > 100 µM (inactive) | 50.4 µM (inactive) | > 100 µM (inactive) |
| c1ccc(OC2=NC3=S(S2)SC(Oc2ccccc2)=N3)cc1 | 15.5 µM (inactive) | 21.6 µM (inactive) | 16.8 µM (inactive) | 26.2 µM (inactive) | – | 19.6 µM (inactive) | 18.3 µM (inactive) | 14.5 µM (inactive) | 4.83 µM (inactive) | 6.01 µM (inactive) | 21.7 µM (inactive) | – | 20.6 µM (inactive) | 24.3 µM (inactive) | 16.7 µM (inactive) |
| Cc1ccc2c(c1)c(=O)c1c(NCCN(C)C)ccc3nnn2c31 | 3.35 µM (inactive) | 2.83 µM (inactive) | 2.1 µM (inactive) | 3.59 µM (inactive) | 2.36 µM (inactive) | 1.9 µM (inactive) | 3.82 µM (inactive) | 5.55 µM (inactive) | 2.36 µM (inactive) | 2.88 µM (inactive) | 4.24 µM (inactive) | 5.42 µM (inactive) | 3.45 µM (inactive) | 4.6 µM (inactive) | 3.6 µM (inactive) |
| C[N+]1(CCNP(=S)(NCC[N+]2(C)Cc3c(ccc4c3OCO4)C3C2c2cc4c(cc2C[C@@H]3O)OCO4)NCC[N+]2(C)Cc3c(ccc4c3OCO4)C3C2c2cc4c(cc2C[C@@H]3O)OCO4)Cc2c(ccc3c2OCO3)C2C1c1cc3c(cc1C[C@H]2O)OCO3 (stereo not given in full) | < 0.00191 µM (active) | < 0.00191 µM (active) | < 0.00191 µM (active) | < 0.00191 µM (active) | < 0.00191 µM (active) | < 0.00191 µM (active) | < 0.00191 µM (active) | < 0.00191 µM (active) | < 0.00191 µM (active) | < 0.00191 µM (active) | < 0.00191 µM (active) | < 0.00191 µM (active) | < 0.00191 µM (active) | < 0.00191 µM (active) | < 0.00191 µM (active) |
| COC(=O)c1cc2ccccc2c2nc3ccccc3c(Cl)c12 | > 100 µM (inactive) | > 100 µM (inactive) | > 100 µM (inactive) | > 100 µM (inactive) | > 100 µM (inactive) | > 100 µM (inactive) | > 100 µM (inactive) | > 100 µM (inactive) | > 100 µM (inactive) | > 100 µM (inactive) | > 100 µM (inactive) | > 100 µM (inactive) | > 100 µM (inactive) | 98.4 µM (inactive) | > 100 µM (inactive) |
| CC(=O)Nc1ccc(C(=O)NN2C(=O)C(Cl)C2c2ccccc2)cc1 (stereo not given) | > 100 µM (inactive) | > 100 µM (inactive) | > 100 µM (inactive) | > 100 µM (inactive) | > 100 µM (inactive) | > 100 µM (inactive) | > 100 µM (inactive) | > 100 µM (inactive) | – | > 100 µM (inactive) | > 100 µM (inactive) | > 100 µM (inactive) | > 100 µM (inactive) | > 100 µM (inactive) | > 100 µM (inactive) |
| C[C@@]12[Se]c3ccccc3[C@]1(C)[Se]c1ccccc12 | 4.85 µM (inactive) | – | 2.74 µM (inactive) | – | 4.79 µM (inactive) | 5.89 µM (inactive) | > 100 µM (inactive) | > 100 µM (inactive) | 8.85 µM (inactive) | 2.75 µM (inactive) | > 100 µM (inactive) | – | > 100 µM (inactive) | 2.57 µM (inactive) | – |
| CC1=CC[C@@H](C(C)(C)O)C[C@@H]1O | > 5000 µM (inactive) | > 5000 µM (inactive) | 3940 µM (inactive) | > 5000 µM (inactive) | > 5000 µM (inactive) | > 5000 µM (inactive) | > 5000 µM (inactive) | > 5000 µM (inactive) | – | > 5000 µM (inactive) | > 5000 µM (inactive) | > 5000 µM (inactive) | > 5000 µM (inactive) | > 5000 µM (inactive) | > 5000 µM (inactive) |
| Cc1cc(NCCCCCCNc2cc(C)nc3cc(N(C)C)ccc23)c2ccc(N(C)C)cc2n1 | 52.4 µM (inactive) | > 10 µM (inactive) | 3.19 µM (inactive) | 54.2 µM (inactive) | – | – | 13.2 µM (inactive) | 57.1 µM (inactive) | – | > 100 µM (inactive) | 57.9 µM (inactive) | 29.2 µM (inactive) | 6 µM (inactive) | 10 µM (inactive) | 31.6 µM (inactive) |
| O=C1C(Cl)C(c2cccc([N+](=O)[O-])c2)N1n1cnc2ccccc2c1=O (stereo not given) | > 100 µM (inactive) | > 100 µM (inactive) | 57 µM (inactive) | > 100 µM (inactive) | – | > 100 µM (inactive) | > 100 µM (inactive) | 78.7 µM (inactive) | 42.3 µM (inactive) | > 100 µM (inactive) | > 100 µM (inactive) | > 100 µM (inactive) | > 100 µM (inactive) | 65.8 µM (inactive) | 55.2 µM (inactive) |
